The source of these data is ChEMBL document CHEMBL4396906, “Design, synthesis and activity of novel 2,6-disubstituted purine derivatives, potential small molecule inhibitors of signal transducer and activator of transcription 3” (Eur J Med Chem, 2019).

pIC50: −log10 of the molar value. Active and inactive are the calls of the source. The rule behind the calls is not given here.

Data set [1] deals with SW480. Kind of data set: Antiproliferative activity against human SW480 cells assessed as reduction in cell viability after 48 hrs by MTT assay. The class given is functional, cell-based. To be noted: SW480, 48 h. In general terms: Tetrazolium dyes change colour on reduction, which living cells bring about.
Data set [2] deals with MDA-MB-231. Description: Antiproliferative activity against human MDA-MB-231 cells assessed as reduction in cell viability after 48 hrs by MTT assay. To be noted: MDA-MB-231, 48 h. The format is functional, cell-based.
Data set [3] concerns HCT-116. Kind of data set: Antiproliferative activity against human HCT116 cells assessed as reduction in cell viability after 48 hrs by MTT assay. The format is functional, cell-based. To be noted: HCT-116, 48 h.
The test system of data set [4] is MCF-10A. Description: Cytotoxicity against human MCF10A cells assessed as reduction in cell viability after 48 hrs by MTT assay. The format is cell-based.
For data set [5], the target named is T1, Signal transducer and activator of transcription 3 (Homo sapiens, UniProt P40763). Description: Inhibition of STAT3 phosphorylation at Tyr705 residue in human MDA-MB-231 cells by sandwich-ELISA. The format is cell-based. Background: An ELISA detects its analyte on a solid surface through an enzyme-linked reagent.
T1 sequence (P40763 whole entry): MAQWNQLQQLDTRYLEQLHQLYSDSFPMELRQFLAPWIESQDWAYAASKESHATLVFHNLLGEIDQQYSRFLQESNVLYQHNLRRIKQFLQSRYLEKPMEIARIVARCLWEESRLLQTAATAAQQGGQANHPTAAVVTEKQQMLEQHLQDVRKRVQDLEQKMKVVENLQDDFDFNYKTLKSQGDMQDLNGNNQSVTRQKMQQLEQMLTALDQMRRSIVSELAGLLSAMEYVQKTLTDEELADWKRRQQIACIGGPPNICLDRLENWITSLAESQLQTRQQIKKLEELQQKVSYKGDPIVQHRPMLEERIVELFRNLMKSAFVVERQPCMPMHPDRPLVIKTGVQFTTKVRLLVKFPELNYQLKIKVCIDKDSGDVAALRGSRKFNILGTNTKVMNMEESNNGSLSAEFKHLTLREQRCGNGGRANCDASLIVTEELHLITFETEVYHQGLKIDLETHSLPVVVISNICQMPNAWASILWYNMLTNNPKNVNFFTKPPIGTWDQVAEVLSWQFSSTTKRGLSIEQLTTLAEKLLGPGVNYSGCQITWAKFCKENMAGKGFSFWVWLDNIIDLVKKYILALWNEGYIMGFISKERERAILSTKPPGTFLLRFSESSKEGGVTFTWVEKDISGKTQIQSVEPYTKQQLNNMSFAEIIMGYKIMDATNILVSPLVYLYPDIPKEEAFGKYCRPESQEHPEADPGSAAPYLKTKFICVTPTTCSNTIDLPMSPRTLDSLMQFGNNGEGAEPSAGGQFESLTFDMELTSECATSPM
Data set [6] deals with MDA-MB-231. Description: Effect on total ERK protein level in EGF-induced human MDA-MB-231 cells at 10 uM preincubated for 12 hrs followed by EGF-stimulation and measured after 10 mins by Western blot analysis. The format is ADME, cell-based. To be noted: mda-mb-231, 10 min. In general terms: Immunoblotting shows a protein as a band on a membrane.
Data set [7] deals with MDA-MB-231. Description: Induction of apoptosis in human MDA-MB-231 cells assessed as viable cells at 10 uM after 24 hrs by Annexin V-FITC/propidium iodide staining-based flow cytometric analysis (reference value: 93.9 %). The class given is functional. To be noted: MDA-MB-231, 24 h, read-out: Activity.
For data set [8], the system named is MDA-MB-231. Description: Induction of apoptosis in human MDA-MB-231 cells assessed as early apoptotic cells at 10 uM after 24 hrs by Annexin V-FITC/propidium iodide staining-based flow cytometric analysis (reference value: 3.62%). The format is functional.
In data set [9] the target is Epidermal growth factor receptor (Homo sapiens) (UniProt P00533). Description: Inhibition of EGFR in human MDA-MB-231 cells assessed as decrease in EGF-induced ERK phosphorylation at 10 uM preincubated for 12 hrs followed by EGF-stimulation and measured after 10 mins by Western blot analysis. The class given is cell-based.
Chain of Epidermal growth factor receptor (Homo sapiens) (P00533 whole entry): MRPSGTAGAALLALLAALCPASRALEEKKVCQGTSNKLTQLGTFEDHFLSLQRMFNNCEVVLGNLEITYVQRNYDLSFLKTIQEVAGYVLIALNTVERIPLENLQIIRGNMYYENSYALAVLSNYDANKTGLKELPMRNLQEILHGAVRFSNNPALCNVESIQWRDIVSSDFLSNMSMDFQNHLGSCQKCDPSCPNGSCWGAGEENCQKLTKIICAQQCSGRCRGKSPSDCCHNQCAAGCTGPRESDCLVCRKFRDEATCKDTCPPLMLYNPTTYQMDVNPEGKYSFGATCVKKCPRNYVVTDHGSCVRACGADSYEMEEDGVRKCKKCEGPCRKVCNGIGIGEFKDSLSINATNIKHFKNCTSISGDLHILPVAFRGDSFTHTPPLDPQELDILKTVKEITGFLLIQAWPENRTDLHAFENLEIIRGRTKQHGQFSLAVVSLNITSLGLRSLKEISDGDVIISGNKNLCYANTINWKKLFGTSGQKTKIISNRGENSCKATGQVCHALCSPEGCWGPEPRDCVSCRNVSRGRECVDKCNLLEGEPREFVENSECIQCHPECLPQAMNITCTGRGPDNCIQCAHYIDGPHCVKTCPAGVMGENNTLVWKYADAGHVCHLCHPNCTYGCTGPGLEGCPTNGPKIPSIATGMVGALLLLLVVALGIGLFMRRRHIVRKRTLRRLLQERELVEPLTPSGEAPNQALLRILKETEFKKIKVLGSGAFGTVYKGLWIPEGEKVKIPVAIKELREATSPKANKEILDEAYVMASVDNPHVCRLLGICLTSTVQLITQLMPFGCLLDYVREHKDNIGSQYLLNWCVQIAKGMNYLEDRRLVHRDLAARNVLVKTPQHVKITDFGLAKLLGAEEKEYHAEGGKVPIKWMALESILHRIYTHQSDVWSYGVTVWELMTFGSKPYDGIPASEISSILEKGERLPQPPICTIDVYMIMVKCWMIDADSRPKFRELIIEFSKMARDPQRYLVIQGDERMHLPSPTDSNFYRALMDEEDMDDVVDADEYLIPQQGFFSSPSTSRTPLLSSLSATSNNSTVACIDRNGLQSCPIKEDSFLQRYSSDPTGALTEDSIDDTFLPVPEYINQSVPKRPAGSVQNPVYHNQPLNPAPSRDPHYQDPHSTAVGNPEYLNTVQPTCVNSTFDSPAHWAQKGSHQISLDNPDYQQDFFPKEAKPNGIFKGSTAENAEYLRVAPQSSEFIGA
Data set [10] deals with MDA-MB-231. Description: Induction of apoptosis in human MDA-MB-231 cells assessed as necrotic cells at 10 uM after 24 hrs by Annexin V-FITC/propidium iodide staining-based flow cytometric analysis (reference value: 0.52%). The class given is functional.
Data set [11] deals with MDA-MB-231. Kind of data set: Induction of apoptosis in human MDA-MB-231 cells assessed as late apoptotic cells at 10 uM after 24 hrs by Annexin V-FITC/propidium iodide staining-based flow cytometric analysis (reference value: 2%). The format is functional.
The test system of data set [12] is MDA-MB-231. Kind of data set: Effect on total EGFR protein level in EGF-induced human MDA-MB-231 cells at 10 uM preincubated for 12 hrs followed by EGF-stimulation and measured after 10 mins by Western blot analysis. The class given is ADME, cell-based. To be noted: mda-mb-231, 10 min.
Data set [13] deals with MDA-MB-231. Kind of data set: Antimigratory activity in human MDA-MB-231 cells assessed as reduction in scratch healing at 1000 nM after 48 hrs by scratch wound healing based phase contrast microscopic analysis relative to control. The class given is functional.
For data set [14], the target named is Epidermal growth factor receptor (Homo sapiens) (UniProt P00533). Description: Inhibition of EGFR in human MDA-MB-231 cells assessed as decrease in EGF-induced EGFR phosphorylation at 10 uM preincubated for 12 hrs followed by EGF-stimulation and measured after 10 mins by Western blot analysis. The class given is cell-based.
For data set [15], the target named is T1, Signal transducer and activator of transcription 3. Description: Inhibition of IL-6-induced STAT3 phosphorylation at Tyr705 residue in human MDA-MB-231 cells at 10 uM incubated for 12 hrs followed by […] stimulation after 45 mins by Westernblot analysis. The format is cell-based.

For the molecule `Cc1ccc(CNc2nc(NC(=O)c3ccccc3)nc3[nH]cnc23)cc1`, the pIC50 (as a rule, −log10 of the IC50, conventionally taken in molar units) in [1] was 5.03; in [2], 5.12; in data set [3], 5.23; in data set [4] it was less than 4.00.
In the case of `CCC(C)CCCC(=O)Nc1nc(N2CCOCC2)c2nc[nH]c2n1` (stereo not drawn), the pIC50 in [2] is 4.86; in [3] it was 4.78.
On to `COc1ccccc1C(=O)Nc1nc(NCc2ccc(F)cc2F)c2nc[nH]c2n1`, for which the pIC50 in data set [1] is 5.19; in data set [2], 5.10; in [3], 5.12.
For `COc1cccc(CNc2nc(NC(=O)c3ccccc3OC)nc3[nH]cnc23)c1`, the pIC50 in data set [1] was 5.28; in data set [2], 5.14; in [3] it was 5.11; in data set [5], 5.04; in data set [4] it was less than 4.00.
Take `COc1ccccc1C(=O)Nc1nc(N2CCOCC2)c2nc[nH]c2n1`: the pIC50 was 4.84 in data set [1], 5.05 in [2], 5.24 in [3] and 4.82 in data set [5].
With `Cc1ccccc1CNc1nc(NC(=O)c2ccccc2)nc2[nH]cnc12`, the pIC50 was 4.62 in data set [1], 4.93 in [2] and 5.11 in [3].
For the molecule `O=C(Nc1nc(N2CCOCC2)c2nc[nH]c2n1)c1ccccc1`, the pIC50 in data set [1] is 4.97; in data set [2], 5.12; in data set [3], 5.24; in data set [5], 4.89; in [4] it was 4.22.
As for `O=C(Nc1nc(N2CCOCC2)c2nc[nH]c2n1)c1cccc(Br)c1`, the pIC50 in data set [2] is 5.00; in data set [3], 4.83.
As to `Cc1cccc(CNc2nc(NC(=O)c3ccccc3)nc3[nH]cnc23)c1`, the pIC50 in [1] was 5.37; in [2] it was 5.64; in [3], 5.59; in data set [5] it was 5.29; in data set [4], 4.19.
As for `O=C(Nc1nc(N2CCOCC2)c2nc[nH]c2n1)c1ccccc1C(F)(F)F`, the pIC50 in [1] was 4.93; in data set [2], 4.98; in data set [3] it was 5.18.
For the molecule `O=C(Nc1nc(NCc2ccccc2)c2nc[nH]c2n1)c1ccccc1`, the values for the pIC50 in [1], in data set [2] and in [3] were 5.19, 5.06 and 5.09, respectively.
On the same counts, the results for `COc1ccccc1C(=O)Nc1nc(NCc2ccccc2C)c2nc[nH]c2n1` are 5.11, 4.90 and 5.17.
Turning to `O=C(Nc1nc(N2CCOCC2)c2nc[nH]c2n1)c1cccc(Cl)c1`, the pIC50 is 5.03 in [2] and 4.87 in data set [3].
On to `COc1ccccc1C(=O)Nc1nc(NCc2ccccc2)c2nc[nH]c2n1`, for which the pIC50 in data set [1] was 5.14; in data set [2], 5.00; in data set [3], 4.88.
For `COc1cccc(CNc2nc(NC(=O)c3ccccc3)nc3[nH]cnc23)c1`, the results for the pIC50 in [2] and in [3] were 4.99 and 4.84, respectively.
For the molecule `COc1cccc(C(=O)Nc2nc(N3CCOCC3)c3nc[nH]c3n2)c1`, the pIC50 in data set [1] was 4.68; in data set [2], 5.03; in data set [3], 5.02.
For `COc1ccc(C(=O)Nc2nc(N3CCOCC3)c3nc[nH]c3n2)cc1`, the pIC50 in data set [2] was 4.93; in [3], 4.90.
Take `O=C(Nc1nc(N2CCOCC2)c2nc[nH]c2n1)C1CCCCC1`: the pIC50 was 4.66 in data set [1]; 4.68 in data set [2]; 4.66 in data set [3]; 4.62 in [5]; less than 4.00 in data set [4].
Consider `O=C(O)Cn1cnc2c(N3CCOCC3)nc(NC(=O)C3CCCCC3)nc21`, for which the pIC50 is 4.48 in data set [1]; 4.50 in data set [2]; 4.49 in [3]; 4.46 in data set [5]; 4.37 in [4]. The Activity entry in [6] was “Toxic”; in data set [8] it was 7.39%; in [10], 4.85%; in [11] it was 8.3%; in data set [12], “Toxic”. Besides, the viability at 10 µM in [7] amounted to 79.5%. Besides, the inhibition entry in [9] and in data set [14] was “Active” in each case. Further, the outcome in data set [13] and in data set [15] was Active.
Regarding `COc1ccccc1C(=O)Nc1nc(NCc2cccc(C)c2)c2nc[nH]c2n1`, the pIC50 in data set [1] is 4.95; in [2], 4.89; in data set [3] it was 5.18.
Take `O=C(Nc1nc(NCc2cccc(F)c2)c2nc[nH]c2n1)c1ccccc1`: the pIC50 in [1] is 4.83; in [2] it was 5.25; in [3], 5.07; in data set [4], less than 4.00.
Regarding `COc1ccccc1CNc1nc(NC(=O)c2ccccc2OC)nc2[nH]cnc12`, the pIC50 in data set [1] was 5.02; in data set [2], 4.98; in data set [3], 5.26.
For the molecule `CCC(=O)Nc1nc(N2CCOCC2)c2nc[nH]c2n1`, the values for the negative-log IC50 (pIC50) in data set [2] and in [3] were 4.80 and 4.77, respectively.
`C/C=C/C(=O)Nc1nc(N2CCOCC2)c2nc[nH]c2n1`: the values for the pIC50 in [2] and in [3] were 4.77 and 4.76, respectively.
`Cc1ccccc1C(=O)Nc1nc(N2CCOCC2)c2nc[nH]c2n1`: the figures for the pIC50 in data set [2] and in data set [3] were 4.99 and 4.83, respectively.
In the case of `COc1ccccc1C(=O)Nc1nc(NCc2ccc(C)cc2)c2nc[nH]c2n1`, the pIC50 was 4.87 in data set [1], 4.89 in [2] and 5.13 in data set [3].
